In PubChem BioAssay (NCI) one finds TGI and GI50 data, which are given here for 15 compounds.

Among the test systems are 786-0 renal; HCC-2998 colon; NCI-H226 lung; OVCAR-5 ovarian; OVCAR-8 ovarian; SK-MEL-2 melanoma; SK-MEL-5 melanoma; SK-OV-3 ovarian; UACC-257 melanoma.
Common to all, as to assay: NCI tumour cell line growth inhibition, 48 h

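Test compounds were applied to cells in 96-well plates for 48 hours at 5 doses. GI50: concentration for 50% inhibition of growth. The concentration for full growth arrest is given as TGI.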

With `CN(C)NC1=C([N+](=O)[O-])C=NN(c2ccccc2)C1`, the TGI with 786-0 renal was 3.24 µM; in the test on HCC-2998 colon, 3.18 µM; with NCI-H226 lung it was 15.1 µM; with OVCAR-5 ovarian, 3.04 µM; in the test with OVCAR-8 ovarian, 4.16 µM; in the test with SK-MEL-2 melanoma, 3.21 µM. In addition, the TGI in the test on SK-MEL-5 melanoma was 6.41 µM; in the test on SK-OV-3 ovarian, 3.46 µM; in the test on UACC-257 melanoma, 3.57 µM.
For `N#C/C(=C\c1c(O)cc(O)cc1O)C(N)=O`, the TGI in the test with 786-0 renal, in the test with HCC-2998 colon, in the test on NCI-H226 lung, with OVCAR-5 ovarian, in the test with OVCAR-8 ovarian and in the test with SK-MEL-2 melanoma was greater than 100 µM throughout. The TGI with SK-MEL-5 melanoma, in the test with SK-OV-3 ovarian and with UACC-257 melanoma was greater than 100 µM each time.
On to `CCC12C=CCN(CCc3c([nH]c4ccccc34)/C=C\1)C2` (stereo unspecified), for which the TGI in the test on 786-0 renal, in the test with HCC-2998 colon, in the test with NCI-H226 lung, with SK-MEL-2 melanoma, in the test on SK-MEL-5 melanoma and with UACC-257 melanoma was greater than 100 µM throughout.
For the compound `O=C(O)c1ccc2c(c1)C(=O)N(c1ccc(S(=O)(=O)c3ccc(N4C(=O)c5ccc(C(=O)O)cc5C4=O)cc3)cc1)C2=O`, the TGI with 786-0 renal, in the test with NCI-H226 lung, in the test with OVCAR-5 ovarian, in the test with OVCAR-8 ovarian, with SK-MEL-2 melanoma and with SK-MEL-5 melanoma was greater than 100 µM in each case. The TGI in the test with SK-OV-3 ovarian and in the test on UACC-257 melanoma was greater than 100 µM in each case.
`COC(=O)c1c(O)ccc(O)c1C(C(C)=O)C(C)=O`: the TGI with 786-0 renal, with HCC-2998 colon, with OVCAR-8 ovarian, in the test with SK-MEL-2 melanoma, in the test with SK-MEL-5 melanoma and with SK-OV-3 ovarian was greater than 100 µM each time. Besides, the TGI in the test with UACC-257 melanoma was greater than 100 µM.
Regarding `Cc1ccc2c(c1)-c1c3c(nn1C)-c1ccccc1SC3O2` (stereo unspecified), the TGI in the test with 786-0 renal, in the test with HCC-2998 colon, in the test on OVCAR-5 ovarian, in the test with OVCAR-8 ovarian, with SK-MEL-2 melanoma and in the test on SK-OV-3 ovarian was greater than 100 µM each time. Also, the TGI in the test with UACC-257 melanoma was greater than 100 µM.
Take `O=C(/C=C/c1ccc(Cl)c(Cl)c1)c1ccccc1Cl`: the TGI turned out to be 10.8 µM in the test on 786-0 renal; 25.6 µM with HCC-2998 colon; 31.6 µM with NCI-H226 lung; 30.4 µM in the test with OVCAR-5 ovarian; 11.8 µM with OVCAR-8 ovarian; 26.7 µM with SK-MEL-5 melanoma. Also, the TGI amounted to 57.8 µM in the test on SK-OV-3 ovarian and 27.7 µM in the test on UACC-257 melanoma.
As to `Cc1ccccc1NC(=O)/C(=N\NC(N)=S)C(C#N)c1ccccc1` (stereo unspecified), the TGI with 786-0 renal, in the test with HCC-2998 colon, in the test with NCI-H226 lung, with OVCAR-5 ovarian, in the test on OVCAR-8 ovarian and in the test with SK-MEL-2 melanoma was greater than 100 µM in each case. The TGI in the test on SK-MEL-5 melanoma, in the test with SK-OV-3 ovarian and in the test with UACC-257 melanoma was greater than 100 µM throughout.
Regarding `Cc1cccc(C)c1NC(=O)CCC(=O)NC(N)=NC#N`, the TGI in the test on 786-0 renal, in the test with HCC-2998 colon, in the test with NCI-H226 lung, in the test with OVCAR-5 ovarian, with OVCAR-8 ovarian and with SK-MEL-5 melanoma was greater than 100 µM each time. Also, the TGI in the test with SK-OV-3 ovarian and in the test with UACC-257 melanoma was greater than 100 µM each time.
Take `CCOC(=O)C1=C(C)NC(=O)NC1c1ccc(OC)cc1OC` (stereo unspecified): the TGI with 786-0 renal, in the test on HCC-2998 colon, with NCI-H226 lung, in the test with OVCAR-5 ovarian, in the test on OVCAR-8 ovarian and in the test on SK-MEL-2 melanoma was greater than 100 µM each time. Further, the TGI in the test on SK-MEL-5 melanoma, in the test with SK-OV-3 ovarian and in the test with UACC-257 melanoma was greater than 100 µM in each case.
Consider `Nc1cccc2c1-c1c(cccc1[N+](=O)[O-])C2=O`, for which the TGI with 786-0 renal, in the test on HCC-2998 colon, with NCI-H226 lung, in the test with OVCAR-5 ovarian, in the test on OVCAR-8 ovarian and with SK-MEL-5 melanoma was greater than 100 µM in each case. Also, the TGI in the test on SK-OV-3 ovarian and in the test on UACC-257 melanoma was greater than 100 µM each time.
In the case of `O=c1nc2sc3ccccc3c(=O)n2[nH]1`, the TGI in the test with 786-0 renal, in the test with HCC-2998 colon, in the test with NCI-H226 lung, in the test with OVCAR-5 ovarian, with OVCAR-8 ovarian and in the test with SK-MEL-2 melanoma was greater than 100 µM throughout. The TGI with SK-MEL-5 melanoma, in the test with SK-OV-3 ovarian and in the test on UACC-257 melanoma was greater than 100 µM throughout.
For `CC(=O)OCC1OC(n2cccnc2=O)C(OC(C)=O)C1OC(C)=O` (stereo unspecified), the TGI in the test with 786-0 renal, with NCI-H226 lung, in the test on OVCAR-5 ovarian, in the test on OVCAR-8 ovarian, in the test on SK-MEL-2 melanoma and with SK-MEL-5 melanoma was greater than 100 µM throughout. Besides, the TGI in the test with SK-OV-3 ovarian and in the test with UACC-257 melanoma was greater than 100 µM throughout.
With `O=S(=O)(NC1=NCCN1C(=S)SN1CCn2c1nsc2=S)c1ccc(Oc2ccccc2)cc1`, the GI50 in the test with 786-0 renal is 63.8 µM; in the test on HCC-2998 colon, 41.7 µM; in the test with NCI-H226 lung, greater than 100 µM; with OVCAR-5 ovarian, greater than 100 µM; with OVCAR-8 ovarian, greater than 100 µM; in the test on SK-MEL-2 melanoma it was 29.3 µM. The GI50 was 32.3 µM with SK-MEL-5 melanoma, greater than 100 µM in the test on SK-OV-3 ovarian and greater than 100 µM with UACC-257 melanoma. Also, the TGI in the test on 786-0 renal was greater than 100 µM; in the test with HCC-2998 colon, greater than 100 µM; with NCI-H226 lung, greater than 100 µM; in the test on OVCAR-5 ovarian, greater than 100 µM; in the test on OVCAR-8 ovarian, greater than 100 µM; in the test on SK-MEL-2 melanoma, 75.5 µM. Also, the TGI in the test with SK-MEL-5 melanoma, with SK-OV-3 ovarian and with UACC-257 melanoma was greater than 100 µM throughout.
On to `CC1(C)C(=O)OC(n2cc(F)c(=O)[nH]c2=O)C1=O` (stereo unspecified), for which the TGI with 786-0 renal, in the test with HCC-2998 colon, in the test on NCI-H226 lung, in the test on OVCAR-5 ovarian, in the test on OVCAR-8 ovarian and in the test on SK-MEL-2 melanoma was greater than 100 µM in each case. Moreover, the TGI in the test on SK-OV-3 ovarian and with UACC-257 melanoma was greater than 100 µM throughout.
